Patent US20130281449A1, “Oxazine Derivatives and their Use in the Treatment of Neurological Disorders” (NOVARTIS AG, priority 2011, published 2013)
Where a name gives a salt, the structure may show the parent alone.

How the values were obtained:
[1] = tested on: Cellular Release of Amyloid Peptide 1-40; experiment: Test 4: Inhibition of Cellular Release of Amyloid Peptide 1-40; assay type: cell-based, Chinese hamster; conditions: Cricetulus griseus, 24 h; read-out: Amyloid-β1-40 release IC50
Method: Chinese hamster ovary cells are transfected with the human gene for amyloid precursor protein. The cells are plated at a density of 8000 cells/well into 96-well microtiter plates and cultivated for 24 hours in DMEM cell culture medium containing 10% FCS. The test compound is added to the cells at various concentrations, and the cells are cultivated for 24 hours in the presence of the test compound. […] The potency of the compound is calculated from the percentage of inhibition of amyloid peptide release as a function of the test compound concentration.

[2] = molecular target: Human BACE-1 (Homo sapiens, UniProt P56817); experiment: Test 1: Inhibition of Human BACE-1; assay type: biochemical; conditions: mean IC50 values in Test 1; recombinant BACE-1, pH 4.5
Method: Test 1: Inhibition of Human BACE-1
IC50 values are calculated from percentage of inhibition of BACE-1 activity as a function of the test compound concentration.

Chain of Human BACE-1 (P56817 46-457 limits assumed): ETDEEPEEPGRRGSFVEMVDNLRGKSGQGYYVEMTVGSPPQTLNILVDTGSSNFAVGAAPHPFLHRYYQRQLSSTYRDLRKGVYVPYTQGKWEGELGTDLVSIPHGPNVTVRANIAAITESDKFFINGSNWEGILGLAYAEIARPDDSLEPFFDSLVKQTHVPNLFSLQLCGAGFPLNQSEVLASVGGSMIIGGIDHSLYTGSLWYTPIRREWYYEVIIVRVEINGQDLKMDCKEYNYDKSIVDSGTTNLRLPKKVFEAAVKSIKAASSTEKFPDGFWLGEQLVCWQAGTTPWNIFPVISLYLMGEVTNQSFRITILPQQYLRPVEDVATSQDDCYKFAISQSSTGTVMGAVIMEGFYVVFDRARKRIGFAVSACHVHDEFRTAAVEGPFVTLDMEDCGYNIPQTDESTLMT

SMILES	IC50 [1] [µM]	IC50 [2] [µM]
Cc1cc(OC(F)F)cnc1C(=O)Nc1ccc(F)c(C2(C)COC(CF)(CF)C(N)=N2)c1 (stereo not drawn) [Example 39, 5-Difluoromethoxy-3-methyl-pyridine-2-carboxylic acid [3-(5-amino-6,6-bis-fluoromethyl-3-methyl-3,6-dihydro-2H-[1,4]oxazin-3-yl)-4-fluoro-phenyl]-amide]	0.022	0.3
[2H]C([2H])([2H])Oc1cnc(C(=O)Nc2cc(F)c(F)c([C@]3(C(F)F)COCC(N)=N3)c2)c(Cl)c1 [Example 15, 3-Chloro-5-trideuteromethoxy-pyridine-2-carboxylic acid [3-((R)-5-amino-3-difluoromethyl-3,6-dihydro-2H-[1,4]oxazin-3-yl)-4,5-difluoro-phenyl]-amide]	0.021	0.032
[2H]C([2H])([2H])Oc1cnc(C(=O)Nc2ccc(F)c([C@]3(C)CO[C@@](C)(C(F)(F)F)C(N)=N3)c2)c(C)c1 [Example 36, 5-Trideuteromethoxy-3-methyl-pyridine-2-carboxylic acid [3-((3R,6R)-5-amino-3,6-dimethyl-6-trifluoromethyl-3,6-dihydro-2H-[1,4]oxazin-3-yl)-4-fluoro-phenyl]-amide]	0.018	0.028
Cc1cc(Cl)cnc1C(=O)Nc1ccc(F)c([C@]2(C)CO[C@@](C)(C(F)(F)F)C(N)=N2)c1 [Example 20, 5-Chloro-3-methyl-pyridine-2-carboxylic acid [3-((3R,6R)-5-amino-3,6-dimethyl-6-trifluoromethyl-3,6-dihydro-2H-[1,4]oxazin-3-yl)-4-fluoro-phenyl]-amide hydrochloride]	0.026	0.005
N#Cc1cnc(C(=O)Nc2ccc(F)c([C@]3(CF)COC(CF)(CF)C(N)=N3)c2)c(Cl)c1 [Example 43, 3-Chloro-5-cyano-pyridine-2-carboxylic acid [3-((R)-5-amino-3,6,6-tris-fluoromethyl-3,6-dihydro-2H-[1,4]oxazin-3-yl)-4-fluoro-phenyl]-amide]	0.022	0.024
[2H]C([2H])([2H])Oc1cnc(C(=O)Nc2ccc(F)c([C@]3(C(F)F)COCC(N)=N3)c2)c(C)c1 [Example 13, 5-Trideuteromethoxy-3-methyl-pyridine-2-carboxylic acid [3-((R)-5-amino-3-difluoromethyl-3,6-dihydro-2H-[1,4]oxazin-3-yl)-4-fluoro-phenyl]-amide]	0.022	0.11
COc1cc(C(F)F)c(C(=O)Nc2ccc(F)c([C@]3(C)CO[C@@](C)(C(F)(F)F)C(N)=N3)c2)nn1 [Example 30, 4-Difluoromethyl-6-methoxy-pyridazine-3-carboxylic acid [3-((3R,6R)-5-amino-3,6-dimethyl-6-trifluoromethyl-3,6-dihydro-2H-[1,4]oxazin-3-yl)-4-fluoro-phenyl]-amide hydrochloride]	0.062	0.15
[2H]c1nc(C(=O)Nc2cc(F)c(F)c([C@]3(C(F)F)COCC(N)=N3)c2)c(C([2H])([2H])[2H])c([2H])c1Cl [Example 16, 4,6-Dideutero-5-chloro-3-trideuteromethyl-pyridine-2-carboxylic acid [3-((R)-5-amino-3-difluoromethyl-3,6-dihydro-2H-[1,4]oxazin-3-yl)-4,5-difluoro-phenyl]-amide]	0.014	0.014

The next compounds have a lower IC50 [1] than those just listed; values first:

IC50 [1] [µM]	IC50 [2] [µM]	SMILES
0.011	0.13	COc1cnc(C(=O)Nc2ccc(F)c([C@]3(C(F)F)COCC(N)=N3)c2)c(C)c1 [Example 7, 5-Methoxy-3-methyl-pyridine-2-carboxylic acid [3-((R)-5-amino-3-difluoromethyl-3,6-dihydro-2H-[1,4]oxazin-3-yl)-4-fluoro-phenyl]-amide hydrochloride]
0.011	0.032	N#Cc1cnc(C(=O)Nc2ccc(F)c([C@]3(C(F)F)COCC(N)=N3)c2)c(Cl)c1 [Example 2, 3-Chloro-5-cyano-pyridine-2-carboxylic acid [3-((R)-5-amino-3-difluoromethyl-3,6-dihydro-2H-[1,4]oxazin-3-yl)-4-fluoro-phenyl]-amide]
0.009	0.012	C[C@@]1(c2cc(NC(=O)c3ncc(Cl)cc3F)ccc2F)CO[C@@](C)(C(F)(F)F)C(N)=N1 [Example 21, 5-Chloro-3-fluoro-pyridine-2-carboxylic acid [3-((3R,6R)-5-amino-3,6-dimethyl-6-trifluoromethyl-3,6-dihydro2H-[1,4]oxazin-3-yl)-4-fluoro-phenyl]-amide hydrochloride]
0.008	0.025	NC1=N[C@@](c2cc(NC(=O)c3ncc(C(F)F)nc3N)ccc2F)(C(F)F)COC1 [Example 6, 3-Amino-5-difluoromethyl-pyrazine-2-carboxylic acid [3-((R)-5-amino-3-difluoromethyl-3,6-dihydro-2H-[1,4]oxazin-3-yl)-4-fluoro-phenyl]-amide]
0.007	0.02	Cl.[2H]C([2H])([2H])Oc1cnc(C(=O)Nc2ccc(F)c([C@]3(C)CO[C@@](C)(C(F)(F)F)C(N)=N3)c2)c(Cl)c1 [Example 22, 3-Chloro-5-trideutero-methoxy-pyridine-2-carboxylic acid [3-((3R,6R)-5-amino-3,6-dimethyl-6-trifluoromethyl-3,6-dihydro-2H-[1,4]oxazin-3-yl)-4-fluoro-phenyl]-amide hydrochloride]
0.006	0.014	Cc1cc(OC(F)F)cnc1C(=O)Nc1ccc(F)c([C@]2(C)CO[C@@](C)(C(F)(F)F)C(N)=N2)c1 [Example 24, 5-Difluoromethoxy-3-methyl-pyridine-2-carboxylic acid [3-((3R,6R)-5-amino-3(6-dimethyl-6-trifluoromethyl-3,6-dihydro-2H-[1,4]oxazin-3-yl)-4-fluoro-phenyl]-amide hydrochloride]
0.006	0.018	COCc1cc(Cl)cnc1C(=O)Nc1ccc(F)c([C@]2(C(F)F)COCC(N)=N2)c1 [Example 1, 5-Chloro-3-methoxymethyl-pyridine-2-carboxylic acid [3-((R)-5-amino-3-difluoromethyl-3,6-dihydro-2H-[1,4]oxazin-3-yl)-4-fluoro-phenyl]-amide]
0.004	0.009	C[C@@]1(c2cc(NC(=O)c3ncc(C#N)cc3Cl)ccc2F)CO[C@@](C)(C(F)(F)F)C(N)=N1 [Example 17, 3-Chloro-5-cyano-pyridine-2-carboxylic acid [3-((3R,6R)-5-amino-3,6-dimethyl-6-trifluoromethyl-3,6-dihydro-2H-[1,4]oxazin-3-yl)-4-fluoro-phenyl]-amide hydrochloride]
0.004	0.029	Cc1cc(OC(F)F)cnc1C(=O)Nc1ccc(F)c([C@]2(C)COC(CF)(CF)C(N)=N2)c1 [Example 40, 5-Difluoromethoxy-3-methyl-pyridine-2-carboxylic acid [3-((R)-5-amino-6,6-bis-fluoromethyl-3-methyl-3,6-dihydro-2H-[1,4]oxazin-3-yl)-4-fluoro-phenyl]-amide]
0.001	0.001	C#CCOc1cnc(C(=O)Nc2ccc(F)c([C@]3(C)CO[C@@](C)(C(F)(F)F)C(N)=N3)c2)c(N)n1 [Example 25, 3-Amino-5-prop-2-ynyloxy-pyrazine-2-carboxylic acid [3-((3R,6R)-5-amino-3,6-dimethyl-6-trifluoromethyl-3,6-dihydro-2H-[1,4]oxazin-3-yl)-4-fluoro-phenyl]-amide]
